This passage reports melting point results from patent US7262185B2, “Benzazepine derivative, process for producing the same, and use” (Takeda Chemical Industries Ltd., priority 2001, dated 2007).

One may read the melting point as the temperature, or range, at which the solid turns liquid.

`CCCCOCCOc1ccc(-c2ccc3c(c2)C=C(C(=O)Nc2ccc(SCc4ncon4)cc2)CCN3CC(C)C)cc1` [Compound 128, 7-[4-(2-butoxyethoxy)phenyl]-1-isobutyl-N-[4-(1,2,4-oxadiazol-3-ylmethylthio)phenyl]-2,3-dihydro-1H-benzazepine-4-carboxamide] had a melting point of 112 to 115 °C.
The figure for `CCCCOCCOc1ccc(-c2ccc3c(c2)C=C(C(=O)Nc2ccc([S+]([O-])Cc4ncon4)cc2)CCN3CC(C)C)cc1` (stereo not drawn) [Compound 129, 7-[4-(2-butoxyethoxy)phenyl]-1-isobutyl-N-[4-(1,2,4-oxadiazol-3-ylmethylsulfinyl)phenyl]-2,3-dihydro-1H-benzazepine-4-carboxamide] is 142 to 144 °C.
The value for `CCCCOCCOc1ccc(-c2ccc3c(c2)C=C(C(=O)Nc2ccc([S+]([O-])Cc4nncn4C)cc2)CCN3CC(C)C)cc1` (stereo not drawn) [Compound 131, 7-[4-(2-butoxyethoxy)phenyl]-N-[4-(4-methyl-4H-1,2,4-triazol-3-ylmethylsulfinyl)phenyl]-1-isobutyl-2,3-dihydro-1H-1-benzazepine-4-carboxamide] was 103 to 105 °C; that for `CCCCOCCOc1ccc(-c2ccc3c(c2)C=C(C(=O)Nc2ccc([S+]([O-])Cc4nncn4C)cc2)CCN3CCC)cc1` (stereo not drawn) [Compound 133, 7-[4-(2-butoxyethoxy)phenyl]-N-[4-(4-methyl-4H-1,2,4-triazol-3-ylmethylsulfinyl)phenyl]-1-propyl-2,3-dihydro-1H-1-benzazepine-4-carboxamide] was 101 to 103 °C; that for `CCCCOCCOc1ccc(-c2ccc3c(c2)C=C(C(=O)Nc2ccc([S+]([O-])Cc4nncn4CCCC)cc2)CCN3CC(C)C)cc1` (stereo not drawn) [Compound 143, 7-[4-(2-butoxyethoxy)phenyl]-N-[4-(4-n-butyl-4H-1,2,4-triazol-3-ylmethylsulfinyl)phenyl]-1-isobutyl-2,3-dihydro-1H-benzazepine-4-carboxamide] was 178 to 180 °C.
The figure for `CCCCOCCOc1ccc(-c2ccc3c(c2)C=C(C(=O)Nc2ccc([S+]([O-])Cc4nncn4CCCC)cc2)CCN3CCC)cc1` (stereo not drawn) [Compound 145, 7-[4-(2-butoxyethoxy)phenyl]-N-[4-(4-n-butyl-4H-1,2,4-triazol-3-ylmethylsulfinyl)phenyl]-1-propyl-2,3-dihydro-1H-benzazepine-4-carboxamide] is 157 to 160 °C; for `CCCCOCCOc1ccc(-c2ccc3c(c2)C=C(C(=O)Nc2ccc([S+]([O-])Cc4nnc(SC)n4CCC)cc2)CCN3CC(C)C)cc1` (stereo not drawn) [Compound 149, 7-[4-(2-butoxyethoxy)phenyl]-1-isobutyl-N-[4-(5-methylthio-4-propyl-4H-1,2,4-triazol-3-ylmethylsulfinyl)phenyl]-2,3-dihydro-1H-benzazepine-4-carboxamide] it is 150 to 152 °C.
With `CCCCOCCOc1ccc(-c2ccc3c(c2)C=C(C(=O)Nc2ccc(N(C)Cc4nncn4CCC)cc2)CCN3CC(C)C)cc1` [Compound 150, 7-[4-(2-butoxyethoxy)phenyl]-1-isobutyl-N-[4-[methyl(4-propyl-4H-1,2,4-triazol-3-ylmethyl)amino]phenyl]-2,3-dihydro-1H-benzazepine-4-carboxamide], the melting point lay in the range of 134 to 136 °C.
As to `CCCCOCCOc1ccc(-c2ccc3c(c2)C=C(C(=O)Nc2ccc(N(C)Cc4nncn4CCC)cc2)CCN3CCC)cc1` [Compound 151, 7-[4-(2-butoxyethoxy)phenyl]-N-[4-[methyl(4-propyl-4H-1,2,4-triazol-3-ylmethyl)amino]phenyl]-1-propyl-2,3-dihydro-1H-benzazepine-4-carboxamide], the melting point was in the range of 131 to 133 °C.
In the case of `CCCCOCCOc1ccc(-c2ccc3c(c2)C=C(C(=O)Nc2ccc([S+]([O-])CCn4cnnc4)cc2)CCN3CC(C)C)cc1` (stereo not drawn) [Compound 155, 7-[4-(2-butoxyethoxy)phenyl]-N-[4-(4H-1,2,4-triazol-4-ylethylsulfinyl)phenyl]-1-isobutyl-2,3-dihydro-1H-benzazepine-4-carboxamide], the melting point is 168 to 170 °C.
Compound `CCCCOCCOc1ccc(-c2ccc3c(c2)C=C(C(=O)Nc2ccc(SCCn4cnnc4)cc2)CCN3CCC)cc1` [Compound 156, 7-[4-(2-butoxyethoxy)phenyl]-N-[4-(4H-1,2,4-triazol-4-ylethylthio)phenyl]-1-propyl-2,3-dihydro-1H-benzazepine-4-carboxamide] had a melting point of 114 to 115 °C.
The value for `CCCCOCCOc1ccc(-c2ccc3c(c2)C=C(C(=O)Nc2ccc([S+]([O-])Cc4c(C)nc5ccccn45)cc2)CCN3CCC)cc1` (stereo not drawn) [Compound 165, 7-[4-(2-butoxyethoxy)phenyl]-N-[4-(2-methylimidazo[1,2-a]pyridin-3-ylmethylsulfinyl)phenyl]-1-propyl-2,3-dihydro-1H-benzazepine-4-carboxamide] was 134 to 137 °C.
`CCCCOCCOc1ccc(-c2ccc3c(c2)C=C(C(=O)Nc2ccc([S+]([O-])c4cccc5nccn45)cc2)CCN3CC(C)C)cc1` (stereo not drawn) [Compound 169, 7-[4-(2-butoxyethoxy)phenyl]-1-isobutyl-N-[4-(imidazo[1,2-a]pyridin-5-ylsulfinyl)phenyl]-2,3-dihydro-1H-benzazepine-4-carboxamide] had a melting point of 162 to 164 °C.
Consider `CCCCOCCOc1ccc(-c2ccc3c(c2)C=C(C(=O)Nc2ccc(Sc4cccc5nc(C)cn45)cc2)CCN3CC(C)C)cc1` [Compound 170, 7-[4-(2-butoxyethoxy)phenyl]-1-isobutyl-N-[4-(2-methylimidazo[1,2-a]pyridin-5-ylthio)phenyl]-2,3-dihydro-1H-benzazepine-4-carboxamide], for which the melting point fell in the range of 164 to 166 °C.
`CCCCOCCOc1ccc(-c2ccc3c(c2)C=C(C(=O)Nc2ccc(SCc4nccn4CCCC(=O)OCC)cc2)CCN3CC(C)C)cc1` [Compound 413, ethyl 4-[2-[[[4-[[[7-[4-(2-butoxyethoxy)phenyl]-1-isobutyl-2,3-dihydro-1H-1-benzazepin-4-yl]carbonyl]amino]phenyl]thio]methyl]-1H-imidazol-1-yl]butanoate] registered a melting point of 103 to 104 °C.
`CCCCOCCOc1ccc(-c2ccc3c(c2)C=C(C(=O)Nc2ccc([S+]([O-])Cc4nccn4CCCC(=O)OCC)cc2)CCN3CC(C)C)cc1` (stereo not drawn) [Compound 414, ethyl 4-[2-[[[4-[[[7-[4-(2-butoxyethoxy)phenyl]-1-isobutyl-2,3-dihydro-1H-1-benzazepine-4-yl]carbonyl]amino]phenyl]sulfinyl]methyl]-1H-imidazol-1-yl]butanoate] showed a melting point of 134 to 136 °C.
`CCCCOCCOc1ccc(-c2ccc3c(c2)C=C(C(=O)Nc2ccc(SCc4cncn4CC(N)=O)cc2)CCN3CC(C)C)cc1` [Compound 429, N-[4-[[[1-(2-amino-2-oxoethyl)-1H-imidazol-5-yl]methyl]thio]phenyl]-7-[4-(2-butoxyethoxy)phenyl]-1-isobutyl-2,3-dihydro-1H-1-benzazepine-4-carboxamide]: the melting point lay within 152 to 154 °C.
In turn, `CCCCOCCOc1ccc(-c2ccc3c(c2)C=C(C(=O)Nc2ccc([S+]([O-])Cc4cncn4CC(N)=O)cc2)CCN3CC(C)C)cc1` (stereo not drawn) [Compound 430, N-[4-[[[1-(2-amino-2-oxoethyl)-1H-imidazol-5-yl]methyl]sulfinyl]phenyl]-7-[4-(2-butoxyethoxy)phenyl]-1-isobutyl-2,3-dihydro-1H-1-benzazepine-4-carboxamide] yielded a melting point of 123 to 125 °C.
In turn, `CCCCOCCOc1ccc(-c2ccc3c(c2)C=C(C(=O)Nc2ccc(S(=O)(=O)Cc4cncn4CC(N)=O)cc2)CCN3CC(C)C)cc1` [Compound 431, N-[4-[[[1-(2-amino-2-oxoethyl)-1H-imidazol-5-yl]methyl]sulfonyl]phenyl]-7-[4-(2-butoxyethoxy)phenyl]-1-isobutyl-2,3-dihydro-1H-1-benzazepine-4-carboxamide] had a melting point of 229 to 231 °C.
The figure for `CCCCOCCOc1ccc(-c2ccc3c(c2)C=C(C(=O)Nc2ccc4c(c2)nc([S+]([O-])Cc2cncn2CCC)n4C)CCN3CC(C)C)cc1` (stereo not drawn) [Compound 445, 7-[4-(2-butoxyethoxy)phenyl]-1-isobutyl-N-[1-methyl-2-(((1-propylimidazol-5-yl)methyl)sulfinyl)benzimidazol-5-yl]-2,3-dihydro-1H-1-benzazepine-4-carboxamide] is 149.5 to 151 °C.
In the case of `CCCCOCCOc1ccc(-c2ccc3c(c2)C=C(C(=O)Nc2ccc(/C(Cc4nccn4CCC)=N/OC)cc2)CCN3CC(C)C)cc1` [Compound 448, 7-[4-(2-butoxyethoxy)phenyl]-1-isobutyl-N-[4-((1E)-N-methoxy-2-(1-propylimidazol-2-yl)ethanimidoyl)phenyl]-2,3-dihydro-1H-1-benzazepine-4-carboxamide], the melting point was 159 to 161 °C.
In turn, `CCCCOCCOc1ccc(-c2ccc3c(c2)C=C(C(=O)Nc2ccc(/C(Cc4nccn4CCC)=N/O)cc2)CCN3CC(C)C)cc1` [Compound 450, 7-[4-(2-butoxyethoxy)phenyl]-N-[4-((1E)-N-hydroxy-2-(1-propylimidazol-2-yl)ethaneimidoyl)phenyl]-1-isobutyl-2,3-dihydro-1H-1-benzazepine-4-carboxamide] returned a melting point of 153.5 to 154.5 °C.
`CCCCOCCOc1ccc(-c2ccc3c(c2)C=C(C(=O)Nc2ccc(CC(=O)c4nccn4CCC)cc2)CCN3CC(C)C)cc1` [Compound 451, 7-[4-(2-butoxyethoxy)phenyl]-1-isobutyl-N-[4-(2-oxo-2-(1-propylimidazol-2-yl)ethyl)phenyl]-2,3-dihydro-1H-1-benzazepine-4-carboxamide] had a melting point of 136.5 to 138 °C.
For `CCCCOCCOc1ccc(-c2ccc3c(c2)C=C(C(=O)Nc2ccc(C/C(=N/O)c4nccn4CCC)cc2)CCN3CC(C)C)cc1` [Compound 453, 7-[4-(2-butoxyethoxy)phenyl]-N-[4-((2Z)-2-(hydroxyimino)-2-(1-propylimidazol-2-yl)ethyl)phenyl]-1-isobutyl-2,3-dihydro-1H-1-benzazepine-4-carboxamide], the melting point lay within 187.5 to 189.5 °C.
